Source: patent US9271991B2, “Trimegestone (TMG) for treatment of preterm birth” (Dignity Health, priority 2010, dated 2016)
Values joined by “and” are separate entries in the source; they are usually repeats but may differ in a detail not shown here. Equal values may be shown once. “Also recorded” adds a separate entry of the source.

Assays:
[1] = tested on: pregnant rats (term delivery); assay: Delay of term delivery in pregnant rats; type: in vivo, Sprague-Dawley rats
Text: Timed-pregnant Sprague-Dawley rats (200-250 g) from Charles-River Laboratories (Wilmington, Mass., USA) were delivered to our animal care facilities on day 15 of gestation (day 1 being the day when a sperm plug was observed). The animals were housed separately, with free access to food and water and maintained on a constant 12-hour light-dark cycle. Control pregnant rats were spontaneously delivering on day 22 of gestation. The animals were randomly allocated into groups and sacrificed by carbon dioxide inhalation on day 5 postpartum or on day 25 of gestation in the groups with delayed delivery.
Pregnant rats (N=6 per group) were treated, when not otherwise mentioned, from day 20 of gestation until delivery. Single daily treatments were performed at 8 am and twice a day treatments at 8 am and 8 pm. Treatment began daily on day 20 of gestation with vehicles or: a) Topical P4 at various doses (4-30 mg/day, vehicle (v)=fish oil) or topical TMG ([…], v=fish oil; b) Subcutaneous (s.c.) P4 (0.5-4 mg/day, v=sesame oil) or s.c. TMG (0.5-2 mg/day, v=benzyl benzoate (BB) and castor oil (CO), 1:4). Delivery times were observed.
Subcutaneous treatments. All daily injections were by the subcutaneous route (s.c) in […] for the P4 treatments and benzyl benzoate (BB, 1 part): castor oil (CO, 4 parts) for the TMG group. P4 and TMG had dose ranges of 0.5 mg-4 mg per day and 0.5 mg-2 mg per day, respectively. Vehicles only are used in the control groups.
Topical treatments. Topical P4 and TMG (in fish oil and benzyl benzoate:castor oil (1:4), respectively) treatments were applied to the shaved back of the rat twice a day For topical treatments of P4 and TMG, dose range from 2 mg-30 mg per day and 0.005 to 0.5 mg per day, respectively.
Times of delivery of controls and treatment groups were determined as hours after 8 a.m. on day 22 of gestation. […] Delays in delivery less than 80 hours were calculated as less than 100% inhibition. The expulsion of a single pup was noted as delivery. Control groups spontaneously delivered on day 22 of gestation.
The Student's t test was used to compare the treatment groups with its specific control groups to determine the differences in delivery times. A 2-tailed probability value of P<0.05 was considered statistically significant.

[2] = tested on: rat pups of treated pregnant rats; assay: Sex of pups / fetuses of TMG-treated pregnant rats; type: in vivo
Description: To determine the effects of TMG on progeny sex ratios, pregnant rats (N=9 per group) were treated daily beginning on day 13 of gestation with TMG (in benzyl benzoate+castor oil, vehicle) or with vehicle only. […] Pups were then placed with surrogate mother also on day 22 of gestation whose pups were sacrificed.
As described, the sex of the pups was evaluated 21 days post-partum by examining external genitalia as well as distance between rectum and genitalia.

[3] = tested on: pregnant guinea pigs (preterm delivery); assay: PGE2-induced preterm delivery in pregnant guinea pigs; type: in vivo, Hartley guinea pigs; conditions: sacrifice day 48
Text: Pregnant guinea pigs, another model of pregnancy are also utilized as they more closely resemble the endocrine control of human pregnancy with progesterone levels in pregnancy maintained by the placenta as opposed to the ovaries, which is observed in pregnant rats.
Pregnant Hartley guinea pigs arrived at our facilities at 31-35 days gestation and housed in pairs, with free access to food and water and also maintained on a constant 12-hour light-dark cycle. The animals were euthanized with a combination of xylazine (Gemini; Burns Veterinary Supply Inc, Rockville Center, N.Y.) and ketamine HCL (Ketaset; Fort Dodge Laboratories Inc, Fort Dodge, Iowa). All procedures were approved by the Animal Care and Use Committee of the St. Joseph's Hospital and Medical Center in Phoenix, Ariz.
Pregnant guinea pigs (N=4-6 per group) were allocated into 4 groups (Vehicle (v) only, TMG only, PGE2 only, PGE2+TMG). PGE2 administration (3 mg/day s.c, v=saline) began daily on day 46 to day 47 of gestation. TMG administration (4 mg/day s.c v=BB:CO) began daily on day 44 until day 47 of gestation. All guinea pigs were sacrificed on day 48.

[4] = biological target: T1, progesterone receptor (PR) (Homo sapiens, UniProt P06401); conditions: cited from earlier work
T1 sequence (P06401 1-933): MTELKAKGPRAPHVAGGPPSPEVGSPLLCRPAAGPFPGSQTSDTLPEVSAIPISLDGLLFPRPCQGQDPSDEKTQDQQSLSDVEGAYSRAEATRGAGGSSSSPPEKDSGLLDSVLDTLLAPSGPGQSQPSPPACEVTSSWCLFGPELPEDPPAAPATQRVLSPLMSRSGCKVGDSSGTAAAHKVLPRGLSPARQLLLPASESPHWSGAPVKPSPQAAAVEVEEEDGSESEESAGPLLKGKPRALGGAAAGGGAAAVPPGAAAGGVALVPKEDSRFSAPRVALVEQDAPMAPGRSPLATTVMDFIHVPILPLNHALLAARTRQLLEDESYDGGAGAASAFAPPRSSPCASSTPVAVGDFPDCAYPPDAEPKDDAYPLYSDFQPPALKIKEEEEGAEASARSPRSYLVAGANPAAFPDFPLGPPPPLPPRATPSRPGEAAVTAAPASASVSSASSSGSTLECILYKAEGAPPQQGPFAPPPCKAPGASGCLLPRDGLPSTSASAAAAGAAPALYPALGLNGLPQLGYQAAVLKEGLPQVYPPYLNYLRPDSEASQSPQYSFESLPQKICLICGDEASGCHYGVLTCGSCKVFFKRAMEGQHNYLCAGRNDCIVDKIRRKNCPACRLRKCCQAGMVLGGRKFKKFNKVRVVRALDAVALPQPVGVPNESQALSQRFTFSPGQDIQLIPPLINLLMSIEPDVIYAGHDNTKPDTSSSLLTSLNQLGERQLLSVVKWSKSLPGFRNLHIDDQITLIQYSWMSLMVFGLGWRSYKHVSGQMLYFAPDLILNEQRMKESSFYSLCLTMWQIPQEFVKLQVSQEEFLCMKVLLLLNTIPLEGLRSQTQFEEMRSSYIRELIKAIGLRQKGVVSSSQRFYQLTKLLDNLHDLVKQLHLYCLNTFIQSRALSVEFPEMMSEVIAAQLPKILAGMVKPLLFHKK

[5] = tested on: estrogenic activity in the uterine endometrium; conditions: in vivo; cited from earlier work
[6] = pregnant rats, s.c. single daily treatment from day 20 of gestation

In the case of `C[C@H](O)C(=O)[C@@]1(C)CC[C@H]2[C@@H]3CCC4=CC(=O)CCC4=C3CC[C@@]21C` [TMG, trimegestone], the “dose for complete block of delivery (80 hour delay, 100 percent inhibition), subcutaneous” value [1, 6] is reported as 0.5 mg, the “dose for complete block of delivery, subcutaneous” value [1, 6] is reported as 0.5 mg/day and the “lower dose for complete block of term delivery compared to P4, subcutaneous” value ([1]; pregnant rats, s.c., 0.5 mg TMG vs. 2 mg P4, P<0.05) is reported as “ca. 4 ×”. The “dose for complete block of delivery, topical” value ([1]; pregnant rats, topical twice a day from day 20 of gestation) was 0.1 mg/day, the “lower dose for complete block of term delivery compared to P4, topically” value ([1]; pregnant rats, topical, 0.5 mg TMG vs. 15 mg P4, P<0.05) was “ca. 30 ×” and the “potency in delaying delivery in rats compared to P4” value ([1]; topical and parenteral administration) was “more potent than P4”. The “masculinizing or feminizing effects on the fetuses” value ([2]; fetuses of treated rats, treatment from day 13 of pregnancy) was “lacks masculinization or feminization effects; also recorded: no masculinizing or feminizing effects”, the “ratio of male to female pups versus vehicle control” value ([2]; pregnant rats treated from day 13 of gestation, N=9) was “no significant difference; also recorded: non-significant differences” and the “guinea pigs delivered (preterm) / treated, substance alone” value ([3]; TMG 4 mg/day s.c. days 44-47, PGE2 3 mg/day days 46, 47) was 1/4. For the same compound, the “guinea pigs delivered (preterm) / treated, TMG plus PGE2” value ([3]; TMG 4 mg/day s.c. days 44-47 and PGE2 3 mg/day days 46-47) was “None and 2/6”, the “relative binding affinity (RBA) for TMG-PR interactions” value [4] was 588 and the “affinity for progesterone receptor (PR), higher than P4” value ([4]; relative to P4) was 6 fold. For the same compound, the “potency, higher than P4” value ([4]; relative to P4) was “approximately 6 times”, the “affinity for the human progesterone receptor, greater than progesterone (P4)” value ([4]; relative to P4, human progesterone receptor) was 6 times and the “antagonism of estrogenic activity in the uterine endometrium versus reference progestins” value [5] was “highest level of estrogenic activity antagonism; also recorded: most potent antagonist of estrogenic activity”.
